Laboratory results from patent US10889596B2, “Beta-amino pateamine a derivatives and methods for treating chronic lymphocytic leukemia” (The Texas A&M University System, priority 2016, dated 2021).
Where “and” joins values, the source holds several entries; their conditions need not be identical. Equal entries are not always repeated. Where two headings read alike, the source gives them in different places.

Experiments:
primary CLL cells = assay: Toxicity/apoptosis in primary CLL cells, annexin V/PI double staining and flow cytometry; assay type: cell-based, human; details: for influence of human plasma content on potency: RPMI with 10% fetal bovine serum, 10% or 50% patient plasma
Method: (§1) The mechanism of action of DMDAPatA was studied in multiple primary CLL samples (FIG. 3A). […] CLL cells were incubated with DMDAPatA for 4 and 24 h then pulse labeled with [^3H]leucine for 1 h. The amount of [^3H]leucine incorporation into the acid insoluble materials (DNA, RNA and proteins) was measured by scintillation counter. […] This is consistent in 3 samples as quantitated in FIG. 3C. The Bcl-2 level was not affected by DMDAPatA, which is consistent with its longer half-life (FIG. 3C). […] MOMP facilitates the release of cytochrome c from mitochondria to form the apoptosome, which activated caspase-3 and induced apoptosis. As PARP is a substrate of caspase-3, an increase of cleaved PARP in FIG. 3C indicated activation of caspase 3. Apoptosis was measured by annexin V and propodium iodide (PI) double staining followed by flow cytometry.
(§2) To screen for PatA analogs with greater potency and less plasma protein binding, the toxicity of the analogs to primary CLL cells was measured after 24 of incubation by annexin/PI double staining followed by flow cytometry. This was compared between CLL cells cultured in media supplemented with either 10% FBS or patient plasma to evaluate the plasma influence. Plasma protein binding was assessed using the equilibrium dialysis method (FIG. 7B).

[1] = Plasma protein binding, equilibrium dialysis; assay type: in vitro ADME, human
Method: as §2
In this example, the plasma protein binding assay used to provide the plasma protein binding data is described.
The assay includes the following steps.
1. Frozen plasma was thawed and centrifuged at 1120 g for 10 min to remove any particulates. The plasma was decanted, the pH was measured and, if required, was adjusted to pH7.4 with lactic acid.
2. All compounds were prepared at 10 mM concentration in DMSO. The solutions were carefully vortexed to ensure the compounds dissolved. The 10 mM DMSO solutions were diluted to 500 μM MeOH solutions (5+95 μl).
3. In a 2 mL 96-well plate (DWP), 1000 μL of plasma was pipetted into each well in Columns 1-4.
4. 10 μL of the 500 μM compound solution was pipetted to 1000 μL of corresponding plasma. (The final DMSO=0.05%). The solution was capped and carefully vortexed for 5 min.
5. 200 μL of PBS buffer was added to each receiver well of the dialysis plate (buffer was added to the Receiver first).
6. The bottom of dialysis plate was capped and turned over to the orange donor side (top) of dialysis plate.
7. The orange donor side of the dialysis plate was uncapped and 200 μL of the 10 μM drug/plasma samples were transferred from the 2 ml 96-DWP to the corresponding donor wells in the dialysis plate. The orange donor side of the dialysis plate was then capped.
8. The dialysis plate was placed onto the plate rotator in a 37° C. oven and incubated at 37° C. with a rotation speed 20 rpm for 22 hr.
9. To a 1 mL 96-DWP, 50 μL/well of the 5 μM drug/plasma samples was pipetted from the 2 mL 96-DWP in triplicate. 50 μL/well of PBS and then 300 μL of ACN/IS was added. The plate was kept at 4° C. This plate serves as the recovery plate.
10. Two 1 mL 96-DWP were prepared and marked as Donor Plate and Receiver Plate.
11. The dialysis plate was removed from the 37° C. oven.
12. The caps were removed from the donor side of the dialysis plate.
13. 50 μL of samples were pipetted from the donor side of the dialysis plate and added into the 96-DWP Donor Plate. 50 μL of PBS buffer was added into the 96-DWP Donor Plate.
14. The donor side of the dialysis plate was capped and turned over. Caps were removed from the Receiver side wells. 50 uL of samples were pipetted from the Receiver side of the dialysis plate and added to the 96-DWP Receiver Plate. […]
23. The samples in the Receiver Plate, Donor Plate, and Recovery Plate were analyzed by LC/MS/MS […]

[2] = tested on: B cells from normal donors; assay: Cellular toxicity to B cells from normal donors; assay type: cell-based, human
From the text: (§3) To predict the therapeutic window of the PatA analogs, their cellular toxicity was compared to CLL cells and to B and T cells from normal donors (FIGS. 8A and 8B). […] PatA was originally identified as a biological probe that inhibits T cell activation, consistent with its toxicity to T cells.

[3] = tested on: T cells from normal donors; assay: Cellular toxicity to T cells from normal donors; assay type: cell-based, human
From the text: as §3

[4] = tested on: P388 murine leukemia cells; details: read-out: IC50, cytotoxic activity; cited from earlier work
[5] = tested on: protein synthesis in CLL cells; assay: [3H]leucine incorporation analysis of protein synthesis in CLL cells; assay type: cell-based, human; details: CLL cells incubated 4 and 24 h, pulse labeled 1 h
Method: as §1
(§4) To confirm that the analogs retain the inhibition on protein synthesis, leucine incorporation analysis was performed on the analogs (FIG. 9A) and compared to DMDAPatA and PatA.

Mcl-1 = assay: Immunoblot of Mcl-1 level in CLL cells; assay type: cell-based, human; details: CLL samples
Method: as §1, §4

Bcl-2 = assay: Immunoblot of Bcl-2 level in CLL cells; assay type: cell-based, human; details: CLL samples
Method: as §1

[6] = Stability of DMDAPatA in RPMI, FBS and human plasma; assay type: in vitro ADME; details: read-out: Half-life time (converted)
Method: These experiments were performed in CLL cells cultured in media supplemented with 10% patient plasma. While mimicking the in vivo environment, we also found this condition beneficial in maintaining cell survival. One potential reason for the reduced potency in the presence of human plasma is stability. To test this theory, the stability of DMDAPatA was studied in FBS and human plasma at two different concentrations.

[7] = tested on: models of human leukemia and melanoma; details: mice; cited from earlier work
[8] = primary CLL cells, media with 10% FBS, 24 incubation, read-out: IC50 (μM) 10% FBS
[9] = primary CLL cells, media with 10% patient plasma, 24 incubation, read-out: IC50 (μM) 10% Plasma
[10] = Homo sapiens, CLL cell, primary CLL cells, media with 10% FBS, 24 incubation, read-out: IC50 (μM) 10% FBS
[11] = Homo sapiens, CLL cell, primary CLL cells, media with 10% patient plasma, 24 incubation, read-out: IC50 (μM) 10% Plasma
[12] = RPMI medium without serum, Pure RPMI

Compound “1,1,1-Trichloro-2-methylpropan-2-yl ((12Z,3S,6Z,8E,11S,15R)-3-((1E,3E,5E)-7-(dimethyl amino)-2-methylhepta-1,3,5-trien-1-yl)-9,11-dimethyl-5,13-dioxo-4,12-dioxa-1(2,4)-thiazolacycloheptadecaphane-6,8-dien-15-yl)carbamate [OR-IV-211]” has an IC50 (primary CLL cells; [8]) of 3.5 µM and an IC50 (primary CLL cells; [9]) of 6.65 µM.

In the case of `CC(/C=C/C(C)=C/[C@@H]1Cc2nc(cs2)CC[C@@H](N)CC(=O)O[C@@H](C)C/C(C)=C/C=C\C(=O)O1)=C\CN(C)C` [OR-IV-234, (12Z,3S,6Z,8E,11S,15R)-15-amino-3-((1E,3E,5E)-7-(dimethylamino)-2,5-dimethylhepta-1,3,5-trien-1-yl)-9,11-dimethyl-4,12-dioxa-1(2,4)-thiazolacycloheptadecaphane-6,8-diene-5,13-dione], the IC50 (primary CLL cells; [8]) is reported as 0.33 µM, the IC50 (primary CLL cells; [9]) is reported as 0.35 µM and the “plasma protein binding (PPB) compared with PatA and DMDAPatA” value [1] is reported as “much lower plasma protein binding”. For the same compound, the recovery in plasma [1] was “modest recovery”.

In the case of `CC(/C=C/C(C)=C/[C@@H]1Cc2nc(cs2)[C@@H](C)C[C@@H](N)CC(=O)O[C@@H](C)C/C(C)=C/C=C\C(=O)O1)=C\CN(C)C` [PatA, Pateamine A], the IC50 (primary CLL cells; [10]) is reported as 0.2 µM, the IC50 (primary CLL cells; [11]) is reported as 0.2 µM and the “influence of human plasma content on potency” value (primary CLL cells) is reported as “not as influential”. The “toxicity to normal B cells compared with CLL cells” value [2] was “similarly toxic to CLL cells as well as normal B and T cells”, the “toxicity to normal T cells compared with CLL cells” value [3] was “similarly toxic to CLL cells as well as normal B and T cells” and the IC50 [4] was 0.27 nM.

In the case of `CC(=O)NC1CCc2csc(n2)CC(C=C(C)C=CC(C)=CCN(C)C)OC(=O)C=CC=C(C)CC(C)OC(=O)C1` [MZ732, N-((12Z,3S,6Z,8E,11S,15R)-3-((1E,3E,5E)-7-(dimethylamino)-2,5-dimethylhepta-1,3,5-trien-1-yl)-9,11-dimethyl-5,13-dioxo-4,12-dioxa-1(2,4)-thiazolacycloheptadecaphane-6,8-dien-15-yl)acetamide], the IC50 (primary CLL cells; [8]) is reported as 4.58 µM and the IC50 (primary CLL cells; [9]) is reported as 6.8 µM.

For `CC(/C=C/C(C)=C/[C@@H]1Cc2nc(cs2)CCCCC(=O)O[C@@H](C)C/C(C)=C/C=C\C(=O)O1)=C\CN(C)C` [DMDAPatA, Des-methyl, des-amino Pateamine A], the “potency relative to PatA (times less potent)” value (primary CLL cells; CLL cells, media with 10% patient plasma) was “about 30 times”, the “IC50 in samples with favorable versus poor prognostic characteristics” value (primary CLL cells; CLL patient samples by prognostic group) was “no significant differences” and the IC50 (primary CLL cells; Homo sapiens, CLL cell, measured in 13 CLL samples, read-out: average IC50) was 2.8 µM. For the same compound, the IC50 (primary CLL cells; [10]) was 0.65 µM, the IC50 (primary CLL cells; [11]) was 6.42 µM and the “influence of human plasma content on potency” value (primary CLL cells) was “greatly reduced the potency”. The “inhibition of protein synthesis ([3H]leucine incorporation)” value [5] was “inhibit protein synthesis”, the Mcl-1 level (Mcl-1) was “reduced the short-lived anti-apoptotic protein Mcl-1” and the Bcl-2 level (Bcl-2) was “not affected”. It also gave a half-life at 1 µM ([6]; Fetal Bovine Serum) of 16 h, a half-life at 10 µM ([6]; Fetal Bovine Serum) of 11.5 h and a half-life at 1 µM ([6]; Human Plasma) of 18 h. It also gave a half-life at 10 µM ([6]; Human Plasma) of 14 h, a half-life at 1 µM [6, 12] of 3 h and a half-life at 10 µM [6, 12] of 3.2 h. The recovery in plasma [1] was “low recovery”, the plasma protein bound ([1]; human plasma) was 99.7% and > 99% and the “activity in xenograft models” value [7] was “significant tumor reduction”.
